Test results published in patent publication US6723726B1 (SmithKline Beecham Corporation, priority 1996, dated 2004).
Counter-ions that a name gives are not always drawn. Like-named read-outs stand apart in the source and are kept apart here.

How the values were obtained:
[1] = target: T1, c-erbB-4 (baculovirus expressed recombinant intracellular domain) (Homo sapiens, UniProt Q15303); assay: Substrate phosphorylation assay, c-erbB-4; type: biochemical; details: ATP and peptide at Km, 30 min, room temperature
T1 construct: baculovirus expressed, recombinant constructs of the intracellular domains of c-erbB-2 and c-erbB-4 that are constitutively active; made in house
T1 sequence (Q15303 676-1308 limits assumed): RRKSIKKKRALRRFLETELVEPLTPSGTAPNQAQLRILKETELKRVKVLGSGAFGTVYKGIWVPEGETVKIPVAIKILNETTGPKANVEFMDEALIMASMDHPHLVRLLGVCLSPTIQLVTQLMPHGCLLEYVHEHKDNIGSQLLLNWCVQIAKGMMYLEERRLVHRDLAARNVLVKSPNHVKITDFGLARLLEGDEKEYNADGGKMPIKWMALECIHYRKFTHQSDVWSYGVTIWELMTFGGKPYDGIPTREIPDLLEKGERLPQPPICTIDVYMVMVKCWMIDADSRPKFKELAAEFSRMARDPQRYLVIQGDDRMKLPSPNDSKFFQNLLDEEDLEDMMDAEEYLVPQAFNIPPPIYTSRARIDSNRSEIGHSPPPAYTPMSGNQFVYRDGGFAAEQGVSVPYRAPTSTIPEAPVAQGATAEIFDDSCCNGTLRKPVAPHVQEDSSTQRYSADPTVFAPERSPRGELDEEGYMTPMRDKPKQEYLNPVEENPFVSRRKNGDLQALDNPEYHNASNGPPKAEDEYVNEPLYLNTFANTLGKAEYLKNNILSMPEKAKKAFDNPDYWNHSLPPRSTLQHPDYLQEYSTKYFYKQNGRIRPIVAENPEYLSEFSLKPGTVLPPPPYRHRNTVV
Description: (§1) The substrate phosphorylation assays use baculovirus expressed, recombinant constructs of the intracellular domains of c-erbB-2 and c-erbB-4 that are constitutively active and EGFr isolated from solubilised A431 cell membranes. The method measures the ability of the isolated enzymes to catalyse the transfer of the γ-phosphate from ATP onto tyrosine residues in a biotinylated synthetic peptide (Biotin-[…]. […] The reaction is stopped by the addition of EDTA (final concentration 0.15 mM) and a sample is transferred to a streptavidin-coated 96-well plate. The plate is washed and level of phosphotyrosine on the peptide is determined using a Europium-labelled antiphosphotyrosine antibody and quantified with a time-resolved fluorescence technique.

[2] = target: T2, c-erbB-2 (baculovirus expressed recombinant intracellular domain) (Homo sapiens, UniProt P04626); assay: Substrate phosphorylation assay, c-erbB-2; type: biochemical; details: ATP and peptide at Km, 30 min, room temperature
T2 construct: baculovirus expressed, recombinant constructs of the intracellular domains of c-erbB-2 and c-erbB-4 that are constitutively active; made in house
T2 sequence (P04626 676-1255 limits assumed): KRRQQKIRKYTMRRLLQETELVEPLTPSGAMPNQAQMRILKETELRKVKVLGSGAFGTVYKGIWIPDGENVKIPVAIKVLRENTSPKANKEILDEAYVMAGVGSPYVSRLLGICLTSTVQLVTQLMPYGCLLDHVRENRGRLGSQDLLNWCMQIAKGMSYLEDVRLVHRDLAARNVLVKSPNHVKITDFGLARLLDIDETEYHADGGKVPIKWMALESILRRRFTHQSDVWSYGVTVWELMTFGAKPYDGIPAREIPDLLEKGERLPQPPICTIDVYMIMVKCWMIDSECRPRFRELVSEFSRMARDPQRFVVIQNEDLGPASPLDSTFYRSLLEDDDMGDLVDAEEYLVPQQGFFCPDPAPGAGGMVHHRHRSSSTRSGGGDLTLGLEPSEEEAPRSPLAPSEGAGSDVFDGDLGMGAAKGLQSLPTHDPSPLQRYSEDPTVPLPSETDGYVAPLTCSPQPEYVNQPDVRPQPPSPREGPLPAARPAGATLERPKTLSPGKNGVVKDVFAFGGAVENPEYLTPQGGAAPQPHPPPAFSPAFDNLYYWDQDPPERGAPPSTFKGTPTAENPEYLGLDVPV
Description: as §1

[3] = test system: Calu3 cells; assay: Cell proliferation assay, Calu3 lung tumour cell line; type: cell-based, human; details: 4 days, methylene blue staining, read-out: Cell Proliferation Calu3 IC50
Description: (§2) The cell proliferation assay uses an immortalised human breast epithelial cell line (HB4a) which has been transformed by over-expression of c-erbB-2. Growth of these cells in low serum is dependent upon the c-erbB-2 tyrosine kinase activity. The specificity of the effect of the test compounds on tyrosine kinase dependent growth over general toxicity is assessed by comparison to an HB4a cell line which has been transfected with ras. Cells are plated at 3000/well in 96-well plates in 0.1 ml medium and allowed to attach overnight, test compound is added in 0.1 ml medium, with a final concentration of 0.5% DMSO, and the plates incubated for 4 days at 37° C. The cells are then examined microscopically for evidence of morphological detransformation and cell mass is estimated by staining with methylene blue and measuring the absorbance at 620 nm. The results are shown in Table 1 below as the IC50 values in nM. Activity against a range of naturally occurring EGFr or c-erbB-2 over-expressing human tumour cell lines (BT474-breast, HN5-head and neck, N87-gastric and Calu3-lung) is assessed with selected compounds by the same methodology. The results are also shown in Table 1 below as the IC50 values in nM.

[4] = test system: HB4a erbB-2 cells; assay: Cell proliferation assay, HB4a transformed by over-expression of c-erbB-2; type: cell-based, human; details: read-out: Cell Proliferation HB4a erbB-2 IC50
Description: as §2

[5] = test system: HB4a ras cells; assay: Cell proliferation assay, HB4a transfected with ras (general toxicity comparison); type: cell-based, human; details: read-out: Cell Proliferation HB4a ras IC50
Description: as §2

[6] = test system: HN5 cells; assay: Cell proliferation assay, HN5 head and neck tumour cell line; type: cell-based; details: Homo sapiens, HN5, 96 h; 4 days, methylene blue staining; read-out: Cell Proliferation HN5 IC50
Description: as §2

[7] = target: T3, EGFr isolated from solubilised A431 cell membranes (Homo sapiens, UniProt P00533); assay: Substrate phosphorylation assay, EGFr; type: biochemical; details: ATP and peptide at Km, 30 min, room temperature
T3 construct: EGFr isolated from solubilised A431 cell membranes; endogenous in cells; host or cells: A431 cell membranes (solubilised)
T3 sequence (P00533 25-1210): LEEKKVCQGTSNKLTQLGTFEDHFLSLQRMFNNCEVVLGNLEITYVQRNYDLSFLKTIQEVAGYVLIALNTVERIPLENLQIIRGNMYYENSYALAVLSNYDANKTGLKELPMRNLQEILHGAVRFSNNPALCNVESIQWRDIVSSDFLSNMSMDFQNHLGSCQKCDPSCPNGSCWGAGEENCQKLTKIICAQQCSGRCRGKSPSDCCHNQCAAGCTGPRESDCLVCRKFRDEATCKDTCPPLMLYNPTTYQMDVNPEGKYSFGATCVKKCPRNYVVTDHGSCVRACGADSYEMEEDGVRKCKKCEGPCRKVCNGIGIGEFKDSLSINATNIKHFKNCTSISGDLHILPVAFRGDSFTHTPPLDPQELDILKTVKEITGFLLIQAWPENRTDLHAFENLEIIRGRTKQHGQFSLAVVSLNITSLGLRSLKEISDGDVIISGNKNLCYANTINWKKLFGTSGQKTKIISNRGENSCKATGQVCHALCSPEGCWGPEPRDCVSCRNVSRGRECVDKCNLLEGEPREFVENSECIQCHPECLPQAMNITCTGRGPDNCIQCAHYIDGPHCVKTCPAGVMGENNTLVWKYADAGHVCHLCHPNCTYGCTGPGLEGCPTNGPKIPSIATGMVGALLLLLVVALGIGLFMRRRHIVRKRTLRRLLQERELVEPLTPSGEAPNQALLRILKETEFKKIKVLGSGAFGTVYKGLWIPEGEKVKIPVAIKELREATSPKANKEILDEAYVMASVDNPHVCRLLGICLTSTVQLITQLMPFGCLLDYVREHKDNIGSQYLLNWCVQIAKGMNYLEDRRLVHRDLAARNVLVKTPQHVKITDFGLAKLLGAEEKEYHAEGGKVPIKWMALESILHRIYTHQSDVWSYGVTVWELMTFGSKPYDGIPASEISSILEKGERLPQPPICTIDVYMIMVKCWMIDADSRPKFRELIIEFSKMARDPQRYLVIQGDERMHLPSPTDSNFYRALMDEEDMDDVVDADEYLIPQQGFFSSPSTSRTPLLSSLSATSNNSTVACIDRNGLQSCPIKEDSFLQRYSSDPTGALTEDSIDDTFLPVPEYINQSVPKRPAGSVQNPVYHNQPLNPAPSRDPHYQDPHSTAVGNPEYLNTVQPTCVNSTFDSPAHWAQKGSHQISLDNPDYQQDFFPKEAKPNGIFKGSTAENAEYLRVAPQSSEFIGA
Description: as §1

[8] = test system: BT474 cells; assay: Cell proliferation assay, BT474 breast tumour cell line; type: cell-based, human; details: 4 days, methylene blue staining, read-out: Cell Proliferation BT474 IC50
Description: as §2

[9] = Homo sapiens, HB4a, 96 h, 4 days, methylene blue staining
[10] = 4 days, methylene blue staining

| SMILES | IC50 [1] | IC50 [2] | IC50 [4, 9] | IC50 [5, 9] | IC50 [7] | other results |
| --- | --- | --- | --- | --- | --- | --- |
| Clc1cc2c(Nc3ccc4c(cnn4Cc4ccccc4)c3)ncnc2cn1 [Example 1, (1-Benzyl-1H-indazol-5-yl)-(6-chloro-pyrido[3,4-d]pyrimidin-4-yl)-amine Hydrochloride] | 48 nM | 27 nM |  |  |  |  |
| CN(CCO)c1cc2c(Nc3ccc4c(cnn4Cc4ccccc4)c3)ncnc2cn1 [Example 3] | 23 nM | 7 nM | 140 nM | 33000 nM |  | IC50 ([3]; Homo sapiens, Calu-3, 96 h): 1800 nM |
| c1ccc(Cn2ncc3cc(Nc4ncnc5cnccc45)ccc32)cc1 [Example 4, (1-Benzyl-1H-indazol-5-yl)-(pyrido[3,4-d]pyrimidin-4-yl)-amine] | 1300 nM | 120 nM | 3900 nM | 13000 nM |  |  |
| CN(C)c1cc2c(Nc3ccc4c(ccn4Cc4ccccc4)c3)ncnc2cn1 [Example 6, N4-(1-Benzyl-1H-indol-5-yl)-N6,N6-dimethyl-pyrido[3,4-d]pyrimidine-4,6-diamine] | 150 nM | 11 nM |  |  |  | IC50 [6]: 320 nM |
| CN(C)c1cc2c(Nc3ccc4c(cnn4Cc4ccccn4)c3)ncnc2cn1 [Example 12, N6,N6-Dimethyl-N4-(1-pyridin-2-ylmethyl-1H-indazol-5-yl)-pyrido[3,4-d]pyrimidine-4,6diamine Hydrochloride] | 3 nM | 1 nM | 170 nM | 32000 nM | 77 nM |  |
| CN(C)c1cc2c(Nc3ccc4c(cnn4Cc4cccnc4)c3)ncnc2cn1 [Example 13, N6,N6-Dimethyl-N4-(1-pyridin-3-ylmethyl-1H-indazol-5-yl)-pyrido[3,4-d]pyrimidine-4,6-diamine Hydrochloride] | 2400 nM | 50 nM | 240 nM | 28000 nM | 370 nM |  |
| Cc1nn(Cc2ccccc2)c2ccc(Nc3ncnc4cnc(N(C)C)cc34)cc12 [Example 14, N4-(1-Benzyl-3-methyl-1H-indazol-5-yl)-N6,N6-dimethyl-pyrido[3,4-d]pyrimidine-4,6-diamine] | 1500 nM | 430 nM | 950 nM | 7900 nM | 830 nM |  |
| CN(C)c1cc2c(Nc3ccc4c(cnn4Cc4ccccc4F)c3)ncnc2cn1 [Example 15, N4-(1-(2-Fluoro-benzyl)1H-indazol-5-yl)-N6,N6-dimethyl-pyrido[3,4-d]pyrimidine-4.6-diamine Hydrochloride] | 4 nM | 7 nM | 4 nM | 14000 nM |  |  |
| CN(C)c1cc2c(Nc3ccc4c(cnn4Cc4ccc(F)cc4)c3)ncnc2cn1 [Example 17, N4-(4-Fluoro-benzyl)-1H-indazol-5-yl)-N6,N6-dimethyl-pyrido[3,4-d]pyrimidine-4,6-diamine Hydrochloride] |  | 250 nM |  |  |  | IC50 [3]: 7000 nM; IC50 [4, 10]: 490 nM; IC50 [5, 10]: 7600 nM; IC50 [8]: 550 nM |
| CN(C)c1cc2c(Nc3ccc4c(ccn4S(=O)(=O)c4ccccc4)c3)ncnc2cn1 [Example 18, N4-(1-Benzenesulphonyl-1H-indol-5-yl)-N6,N6-dimethyl-pyrido[3,4-d]pyrimidine-4,6-diamine Hydrochloride] | 1700 nM | 98 nM | 21 nM | 19000 nM | 290 nM | IC50 [6]: 440 nM |
| CN(C)c1cc2c(Nc3ccc4c(S(=O)(=O)c5ccccc5)c[nH]c4c3)ncnc2cn1 [Example 19, Hydrochloride] | 130 nM | 6 nM |  |  | 540 nM | IC50 ([4]; Homo sapiens, HB4a, 96 h): 1200 nM; IC50 ([5]; Homo sapiens, HB4a, 96 h): 33000 nM |
| c1ccc(Cn2ncc3cc(Nc4ncnc5cnc(-n6ccnc6)cc45)ccc32)cc1 [Example 20, (1-Benzyl-1H-indazol-5-yl)-(6-imidazol-1-yl-pyrido[3,4-d]pyrimidin-4-yl)-amine] |  | 33 nM | 470 nM | 14000 nM | 4 nM |  |
| c1ccc(Cn2ncc3cc(Nc4ncnc5cnc(-n6cncn6)cc45)ccc32)cc1 [Example 21] |  |  |  |  | 54 nM | IC50 [4, 10]: 500 nM; IC50 [5, 10]: 18000 nM |
| c1ccc(Cn2ncc3cc(Nc4ncnc5cnc(-n6nccn6)cc45)ccc32)cc1 [Example 22] |  |  |  |  | 22 nM | IC50 [4, 10]: 1700 nM; IC50 [5, 10]: 18000 nM |
| c1ccc(Cn2ncc3cc(Nc4ncnc5cnc(-n6ccnn6)cc45)ccc32)cc1 [Example 23] |  |  |  |  | 31 nM | IC50 [4, 10]: 250 nM; IC50 [5, 10]: 22000 nM |
| c1ccc(Cn2ncc3cc(Nc4ncnc5cnc(N6CCCC6)cc45)ccc32)cc1 [Example 24, (1-Benzyl-1H-indazol-5-yl)-(6-pyrrolidin-1-yl-pyrido[3,4-d]pyrimidin-4-yl)-amine] | 140 nM | 20 nM | 810 nM | 50000 nM |  | IC50 [6]: 900 nM; IC50 ([8]; Homo sapiens, BT-474, 96 h): 460 nM |
| CCN(C)c1cc2c(Nc3ccc4c(cnn4Cc4ccccc4)c3)ncnc2cn1 [Example 26, N4-(1-Benzyl-1H-indazol-5-yl)-N6-ethyl-N6-methyl-pyrido[3,4-d]pyrimidine-4.6-diamine] |  | 29 nM |  |  | 54 nM | IC50 [4, 10]: 150 nM; IC50 [5, 10]: 8900 nM |
| CC(C)NC(=O)CN1CCN(c2cc3c(Nc4ccc5c(cnn5Cc5ccccc5)c4)ncnc3cn2)CC1 [Example 27, 2-(4-(4-(1-Benzyl-1H-indazol-5-ylamino)-pyrido[3,4-d]pyrimidin-6-yl)-piperazin-1-yl)-N-isopropyl-acetamide] | 190 nM | 2 nM | 380 nM | 21000 nM |  |  |
| O=C(CN1CCN(c2cc3c(Nc4ccc5c(cnn5Cc5ccccc5)c4)ncnc3cn2)CC1)N1CCOCC1 [Example 28, 2-(4-(4-(1-Benzyl-1H-indazol-5-ylamino)-pyrido[3,4-d]pyrimidin-6-yl)-piperazin-1-yl)-1-morpholin-4-yl-ethanone] | 170 nM | 4 nM | 590 nM | 28000 nM |  |  |
| Cc1nnc(-c2cc3c(Nc4ccc5c(cnn5Cc5cccc(F)c5)c4)ncnc3cn2)o1 [Example 30, (1-(3-Fluoro-benzyl)-1H-indazol-5-yl)-(6-(5-methyl-1,3,4-oxadiazol-2-yl)-pyrido[3,4-d]pyrimidin-4-yl)-amine Hydrochloride] | 9600 nM | 2 nM | 2900 nM | 26000 nM | 2 nM |  |
| c1ccc(COc2cc3c(Nc4ccc5c(cnn5Cc5ccccc5)c4)ncnc3cn2)cc1 [Example 33, (1-Benzyl-1H-indazolyl-5-yl)-(6-benzyloxy-pyrido[3,4-d]pyrimidin-4-yl)-amine Hydrochloride] | 2700 nM | 140 nM | > 50000 nM | 50000 nM | 1900 nM |  |
| O=C(O)c1ccc(-c2cc3c(Nc4ccc5c(cnn5Cc5ccccc5)c4)ncnc3cn2)o1 [Example 35, 5-[4-(1-Benzyl-1H-indazol-5-ylamino)-pyrido-[3,4-d]pyrimidin-6-yl]-furan-2-carboxylic Acid Hydrochloride] |  |  | 27000 nM | > 50000 nM | 1600 nM |  |
| CS(=O)(=O)CCNC(=O)c1ccc(-c2cc3c(Nc4ccc5c(cnn5Cc5ccccc5)c4)ncnc3cn2)o1 [Example 36, 5-[4-(1-benzyl-1H-indazol-5-ylamino)-pyrido-[3,4-d]pyrimidin-6-yl]-furan-2-carboxylic Acid 2-methanesulphonyl-ethylamide Hydrochloride] |  |  | 3100 nM | > 50000 nM | 1600 nM |  |
| CN(C)c1cc2c(Nc3ccc4c(cnn4Cc4ccc(O)cc4)c3)ncnc2cn1 [Example 38, N4-[1-(4-Hydroxybenzyl)-1H-indazol-5-yl)-N6,N6-dimethyl-pyrido[3,4-d]pyrimidine-4,6-diamine] | 1900 nM | 330 nM | 6900 nM | 50000 nM | 930 nM |  |
